Reference: patent US20100152261A1 (MITSUBISHI TANABE PHARMA CORPORATION, priority 2005, published 2010)
Where two headings read alike, the source gives them in different places.

What was measured:
muscarinic M3 receptor = biological target: T1, muscarinic M3 receptor (Cavia porcellus, UniProt H0W1Z3); assay: Muscarinic M3 antagonistic action in isolated guinea pig trachea (carbachol-induced contraction, Schild method); type: cell-based; conditions: compound applied 15 minutes before carbachol
T1 construct: trachea was excised, and cut at every two tracheal cartilages to prepare tissue specimens; from tissue; host or cells: isolated guinea pig trachea (male Hartley)
Experimental: Muscarinic M3 Antagonistic Action in Isolated Guinea Pig Trachea
Male Hartley guinea pigs (350 to 600 g) were sacrificed by bleeding, and trachea was excised, and cut at every two tracheal cartilages to prepare tissue specimens. Each tissue specimen was kept warm at 37° C., suspended with a resting tension of 1 g in a 5-mL Magnus bath filled with a Krebs carbonate buffer containing indomethacin (1 μM) bubbled with 95% O2/5% CO2, and left for 60 minutes as a stabilization period. […] After the measurement, the tissue specimen was immediately washed, and left for 60 minutes as a stabilization period before the next contraction reaction, and the tissue specimen of which EC50 for the carbachol-induced contraction reaction was stabilized was considered as a control. Each test compound was applied 15 minutes before the addition of carbachol. The affinity (pA2) of the test compound was obtained by the Schild method (Arunlakshana, O. and Schild, H. O., Brit. J. Pharmacol., 1959, 14, 48-58).

muscarinic M2 receptor = biological target: T2, muscarinic M2 receptor (Cavia porcellus, UniProt H0VRN8); assay: Muscarinic M2 antagonistic action in isolated guinea pig left atrium (carbachol-induced relaxation, Schild method); type: cell-based; conditions: compound applied 30 minutes before carbachol
T2 construct: left atria were excised to prepare tissue specimens; from tissue; host or cells: isolated guinea pig left atrium (male Hartley)
T2 sequence (H0VRN8 1-466): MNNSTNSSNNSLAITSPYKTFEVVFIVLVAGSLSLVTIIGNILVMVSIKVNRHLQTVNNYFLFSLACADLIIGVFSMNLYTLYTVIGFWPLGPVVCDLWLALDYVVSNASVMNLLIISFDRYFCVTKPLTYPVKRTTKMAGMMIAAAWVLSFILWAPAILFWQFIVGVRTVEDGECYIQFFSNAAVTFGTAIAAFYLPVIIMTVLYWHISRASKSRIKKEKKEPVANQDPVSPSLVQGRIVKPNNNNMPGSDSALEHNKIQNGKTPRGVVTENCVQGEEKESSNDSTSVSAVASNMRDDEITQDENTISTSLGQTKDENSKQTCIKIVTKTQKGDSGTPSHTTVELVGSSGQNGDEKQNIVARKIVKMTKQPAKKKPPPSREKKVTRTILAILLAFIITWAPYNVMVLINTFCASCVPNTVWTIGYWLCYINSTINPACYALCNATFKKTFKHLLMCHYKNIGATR
Experimental: Muscarinic M2 Antagonistic Action in Isolated Guinea Pig Left Atrium […] Each tissue specimen was kept warm at 37° C., suspended with a resting tension of 0.5 g in a 5-mL Magnus bath filled with a Krebs carbonate buffer bubbled with 95% O2/5% CO2. Then, contraction evoked by field electrical stimulation (4 Hz, 2 msec, 1.5×threshold potential) was measured. After a stabilization period of 60 minutes, carbachol-induced relaxation was isometrically measured and recorded by the cumulative method from 10^−8 M with an interval of 90 seconds for one concentration in an equal ratio of 3. After the measurement, the tissue specimen was immediately washed, and left for 45 minutes as a stabilization period before the next observation. The tissue specimen of which EC50 for the carbachol-induced relaxation was stabilized was considered as a control. Each test compound was applied 30 minutes before the addition of carbachol. The affinity (pA2) of the test compound was obtained in the same manner as in the case of the trachea.

[1] = pA2 Trachea M3, isolated guinea pig trachea
[2] = pA2 Left atrium M2, isolated guinea pig left atrium
[3] = isolated guinea pig left atrium

T1 sequence (H0W1Z3 1-590): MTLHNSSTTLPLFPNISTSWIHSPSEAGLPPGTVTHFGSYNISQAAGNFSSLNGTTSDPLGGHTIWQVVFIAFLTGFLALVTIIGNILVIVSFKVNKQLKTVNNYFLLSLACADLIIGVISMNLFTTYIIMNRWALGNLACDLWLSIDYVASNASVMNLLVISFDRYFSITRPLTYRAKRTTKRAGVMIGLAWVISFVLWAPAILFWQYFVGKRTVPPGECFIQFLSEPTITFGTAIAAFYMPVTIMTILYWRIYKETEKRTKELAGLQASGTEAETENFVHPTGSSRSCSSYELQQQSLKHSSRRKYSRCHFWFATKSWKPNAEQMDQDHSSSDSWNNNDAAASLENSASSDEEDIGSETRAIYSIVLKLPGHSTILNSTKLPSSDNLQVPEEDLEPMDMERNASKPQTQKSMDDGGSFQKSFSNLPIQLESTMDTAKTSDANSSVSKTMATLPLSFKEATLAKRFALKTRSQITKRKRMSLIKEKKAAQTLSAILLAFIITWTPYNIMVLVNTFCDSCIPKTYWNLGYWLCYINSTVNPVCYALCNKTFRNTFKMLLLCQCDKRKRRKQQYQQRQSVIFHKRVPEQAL

Compound	Kb (muscarinic M3 receptor; [1]) [nM]	Kb (muscarinic M2 receptor; [2]) [nM]	further results
COCC[n+]1cn([C@H]2CC[C@@H](C(C(N)=O)(c3ccccc3)c3ccccc3)C2)cn1 (relative stereo) [Example 72, 4-(cis-3-(Carbamoyl(diphenyl)methyl)cyclopentyl)-1-(2-methoxyethyl)-4H-[1,2,4]triazol-1-ium bromide]	0.794	31.6	–
C[n+]1cn([C@H]2CC[C@@H](C(C(N)=O)(c3ccccc3)c3ccccc3)C2)cn1 (relative stereo) [Example 69, 4-(cis-3-(Carbamoyl(diphenyl)methyl)cyclopentyl)-1-methyl-4H-[1,2,4]triazol-1-ium iodide]	0.794	25.1	–
NC(=O)C(c1ccccc1)(c1ccccc1)[C@@H]1CC[C@H](n2c[n+](Cc3ccccc3)cn2)C1 (relative stereo) [Example 71, 4-Benzyl-1-(cis-3-(carbamoyl(diphenyl)methyl)cyclopentyl)-1H-[1,2,4]triazol-4-ium bromide]	0.794	39.8	–
CN1[C@@H]2CC[C@H]1C[C@@H](OC(=O)C(CO)c1ccccc1)C2 (stereo partly shown) [Atropine, reference compound]	–	2.51	–
CCOCC[n+]1ccn([C@H]2CC[C@@H](C(C(N)=O)(c3ccccc3)c3ccccc3)C2)c1C (relative stereo) [Example 25, 3-(cis-3-(Carbamoyl(diphenyl)methyl)cyclopentyl)-1-(2-ethoxy-ethyl)-2-methyl-3H-imidazol-1-ium bromide]	1.58	25.1	–
Cc1n([C@H]2CC[C@H](C(C(N)=O)(c3ccccc3)c3ccccc3)C2)cc[n+]1CCC(C)C (relative stereo) [Example 73, 3-(trans-3-(Carbamoyl(diphenyl)methyl)cyclopentyl)-2-methyl-1-(3-methylbutyl)-3H-imidazol-1-ium bromide]	0.631	6.31	–
CC#CC[n+]1ccn([C@H]2CC[C@@H](C(C(N)=O)(c3ccccc3)c3ccccc3)C2)c1C [Example 82]	0.794	63.1	–
COCC[n+]1ccn([C@H]2CC[C@@H](C(C(N)=O)(c3ccccc3)c3ccccc3)C2)c1C [Example 76, 3-((1S,3R)-3-(Carbamoyl(diphenyl)methyl)cyclopentyl)-1-(2-methoxyethyl)-2-methyl-3H-imidazol-1-ium para-toluenesulfonate]	–	–	Kb (muscarinic M3 receptor; isolated guinea pig trachea, read-out: pA2 Trachea M3 (converted)): 1.26 nM; Kb (muscarinic M2 receptor; isolated guinea pig left atrium, read-out: pA2 Left atrium M2 (converted)): 200 nM
COCC[n+]1ccn([C@H]2CC[C@H](C(C(N)=O)(c3ccccc3)c3ccccc3)C2)c1C (relative stereo) [Example 67, 3-(trans-3-(Carbamoyl(diphenyl)methyl)cyclopentyl)-1-(2-methoxyethyl)-2-methyl-3H-imidazol-1-ium bromide]	1.26	79.4	–
Cc1n([C@H]2CC[C@@H](C(C(N)=O)(c3ccccc3)c3ccccc3)C2)cc[n+]1Cc1ccc(F)cc1 [Example 85, 3-((1S,3R)-3-(Carbamoyl(diphenyl)methyl)cyclopentyl)-1-(4-fluorobenzyl)-2-methyl-3H-imidazol-1-ium bromide]	0.794	31.6	–
Cc1n([C@H]2CC[C@@H](C(C(N)=O)(c3ccccc3)c3ccccc3)C2)cc[n+]1CCC(C)C [Example 79, 3-((1S,3R)-3-(Carbamoyl(diphenyl)methyl)cyclopentyl)-2-methyl-1-(3-methyl-butyl)-3H-imidazol-1-ium bromide]	0.631	63.1	–
Cc1n([C@H]2CC[C@H](C(C#N)(c3ccccc3)c3ccccc3)C2)cc[n+]1Cc1ccccc1 (relative stereo) [Example 87, 1-Benzyl-3-(trans-3-(cyano(diphenyl)methyl)cyclopentyl)-2-methyl-3H-imidazol-1-ium bromide]	1	50.1	–
CC(C)[N+]1(C)[C@@H]2CC[C@H]1C[C@@H](OC(=O)C(CO)c1ccccc1)C2 (stereo partly shown) [Ipratropium, reference compound]	1	3.98	–
C[n+]1ccn([C@H]2CC[C@@H](C(C(N)=O)(c3ccccc3)c3ccccc3)C2)c1 (relative stereo) [Example 5, 3-(cis-3-(Carbamoyl(diphenyl)methyl)cyclopentyl)-1-methyl-3H-imidazol-1-ium iodide]	2.51	31.6	–
C=C(CC)[n+]1ccn([C@H]2CC[C@@H](C(C(N)=O)(c3ccccc3)c3ccccc3)C2)c1C.[Br-] [Example 78, 3-((1S,3R)-3-(Carbamoyl(diphenyl)methyl)cyclopentyl)-1-buten-2-yl-2-methyl-3H-imidazol-1-ium bromide]	–	–	pA2 Trachea M3 (muscarinic M3 receptor; isolated guinea pig trachea): 9.2; pA2 Left atrium M2 (muscarinic M2 receptor; [3]): 7.9
CC(=O)OCC[n+]1ccn([C@H]2CC[C@@H](C(C(N)=O)(c3ccccc3)c3ccccc3)C2)c1C (relative stereo) [Example 51, 3-(cis-3-(Carbamoyl(diphenyl)methyl)cyclopentyl)-1-(2-acetoxy-ethyl)-2-methyl-3H-imidazol-1-ium bromide]	1	31.6	–
Cc1n([C@H]2CC[C@H](C(C(N)=O)(c3ccccc3)c3ccccc3)C2)cc[n+]1C (relative stereo) [Example 66, 3-(trans-3-(Carbamoyl(diphenyl)methyl)cyclopentyl)-1,2-dimethyl-3H-imidazol-1-ium iodide]	1.26	39.8	–
CC(=O)C[n+]1ccn([C@H]2CC[C@H](C(C#N)(c3ccccc3)c3ccccc3)C2)c1C (relative stereo) [Example 88, 3-(trans-3-(Cyano(diphenyl)methyl)cyclopentyl)-2-methyl-1-(2-oxopropyl)-3H-imidazol-1-ium bromide]	1	251	–
CC1=[N+](C)CCN1[C@H]1CC[C@@H](C(C(N)=O)(c2ccccc2)c2ccccc2)C1 [Example 58, 3-((1S,3R)-3-(Carbamoyl(diphenyl)methyl)cyclopentyl)-1,2-dimethyl-4,5-dihydro-3H-imidazol-1-ium iodide]	3.16	79.4	–
Cc1n([C@H]2CC[C@@H](C(C(N)=O)(c3ccccc3)c3ccccc3)C2)cc[n+]1C(F)F [Example 81, 3-((1S,3R)-3-(Carbamoyl(diphenyl)methyl)cyclopentyl)-1-difluoromethyl-2-methyl-3H-imidazol-1-ium bromide]	1	–	–
Cc1n([C@@H]2CC[C@H](C(C(N)=O)(c3ccccc3)c3ccccc3)C2)cc[n+]1C(F)F [Example 92, 3-((1R,3S)-3-(Carbamoyl(diphenyl)methyl)cyclopentyl)-1-difluoromethyl-2-methyl-3H-imidazol-1-ium bromide]	0.398	12.6	–
Cc1n([C@H]2CC[C@@H](C(C(N)=O)(c3ccccc3)c3ccccc3)C2)cc[n+]1CCO.[Br-] [Example 84, 3-((1S,3R)-3-(Carbamoyl(diphenyl)methyl)cyclopentyl)-1-hydroxyethyl-2-methyl-3H-imidazol-1-ium bromide]	–	–	pA2 Trachea M3 (muscarinic M3 receptor; isolated guinea pig trachea): 8.2; pA2 Left atrium M2 (muscarinic M2 receptor; [3]): 6.3
CC(=O)OCCC[n+]1ccn([C@H]2CC[C@H](C(C(N)=O)(c3ccccc3)c3ccccc3)C2)c1C (relative stereo) [Example 75, 1-(3-Acetoxypropyl)-3-(trans-3-(carbamoyl(diphenyl)methyl)cyclopentyl)-2-methyl-3H-imidazol-1-ium bromide]	0.501	158	–
3-(trans-3-(Carbamoyl(diphenyl)methyl)cyclopentyl)-1-cyclopentylmethyl-2-methyl-3H-imidazol-1-ium bromide [Example 68]	–	–	pA2 Trachea M3 (muscarinic M3 receptor; isolated guinea pig trachea): 9.4; pA2 Left atrium M2 (muscarinic M2 receptor; [3]): 7.4
